IC50, Hemolysis and GI50 data for 13 compounds are collected here from patent US8895695B2, “Template-fixed beta-hairpin peptidomimetics with CXCR4 antagonizing activity” (priority 2003, dated 2014).

The structures appear in SMILES notation. Bridge positions count the residues as written; N and C are the ends. Square brackets hold non-standard residues; d marks the D form. Peptide text beside a SMILES is read from it. 2Nal = N[C@@H](Cc1ccc2ccccc2c1)C(=O)O; Gly(N-2-aminoethyl) = NCCNCC(=O)O; 4Pal = N[C@@H](Cc1ccncc1)C(=O)O; Cit = NC(=O)NCCC[C@H](N)C(=O)O; Dab = NCC[C@H](N)C(=O)O

The target in one data set is CXCR4 (Homo sapiens, UniProt P61073). The experiment in a line: Ca2+-assay method 2 (Flexstation, SDF-1 induced calcium mobilization). Format: cell-based. The conditions noted are these: method 2 (Ex. 54-160), mouse pre-B cell line 300-19 with human CXCR4, 10 nM SDF-1; read-out: IC50 (nM) Ca^2+ assay. More on the design: expressed in transfected cells; host or cells: mouse pre-B cell line 300-19.
Chain of CXCR4 (P61073 whole entry): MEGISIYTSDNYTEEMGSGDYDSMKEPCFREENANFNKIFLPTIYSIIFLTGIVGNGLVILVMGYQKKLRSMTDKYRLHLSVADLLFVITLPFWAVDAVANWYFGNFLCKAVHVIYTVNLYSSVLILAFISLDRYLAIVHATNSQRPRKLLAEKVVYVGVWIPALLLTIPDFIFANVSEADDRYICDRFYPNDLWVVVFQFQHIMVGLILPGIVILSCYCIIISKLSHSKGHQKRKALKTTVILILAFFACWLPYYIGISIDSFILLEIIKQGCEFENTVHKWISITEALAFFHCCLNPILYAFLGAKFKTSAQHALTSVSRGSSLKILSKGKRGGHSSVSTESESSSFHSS

Data set [1] has as its system human red blood cells (hRBC). Description: Hemolysis. The data set is classed as cell-based. The procedure, abridged:
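Percent lysis taken as OD540 of peptide-treated sample over OD540 of the water/0.1% Triton X-100 full-lysis control, with PBS giving 0%. Peptides at 100 μM exposed to PBS-washed human RBCs (20% v/v) for 1 hour at 37° C. before centrifugation and 20-fold dilution of supernatant.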

Another data set can be described thus: in vitro. The conditions noted are these: human.
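Throughout, for GI50: MTT reduction read as absorbance at 595 nm, blank-corrected and expressed as percent growth relative to the time-zero cell reading, triplicate wells per concentration.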

Experimental for in vitro: Each peptide concentration was assayed in triplicate. […] Wells were then washed once with PBS and subsequently 100 μl MTT reagent (0.5 mg/mL in medium RPMI1640 and, respectively, DMEM) was added to the wells. This was incubated at 37° C. for 2 hours and subsequently the medium was aspirated and 100 μl isopropanol was added to each well. […] For each concentration averages were calculated from triplicates. The percentage of growth was calculated as follows: (OD595peptide-OD595Tz-OD595Empty well)/(OD595Tz-OD595Empty well)×100% and was plotted for each peptide concentration.
‘CCR5’ cells were cultured in DMEM medium with 4500 mg/ml glucose, 10% fetal bovine serum (FBS), supplemented with 50 U/ml Penicillin and 50 μg/ml Streptomycin (Pen/Strept.). Hut/4-3 cells were maintained in RPMI medium, 10% FBS, supplemented with Pen/Strept. and 10 mM HEPES. HELA cells and CCRF-CEM cells were maintained in RPMI1640 plus 5% FBS, Pen/Strept and 2 mM L-Glutamine. Cos-7 cells were grown in DMEM medium with 4500 mg/ml glucose supplemented with 10% FCS, Pen/Strept. and 2 mM L-Glutamine. All cell lines were grown at 37° C. at 5% CO2.

Consider `CC(C)[C@@H]1NC(=O)[C@@H]2CCCN2C(=O)[C@H]2CCCN2C(=O)[C@H](CCCCN)NC(=O)[C@H](CCC(N)=O)NC(=O)[C@H](Cc2ccc(O)cc2)NC(=O)[C@@H]2CSSC[C@H](NC(=O)[C@H](CCCNC(N)=O)NC(=O)[C@H](CCCNC(=N)N)NC1=O)C(=O)N[C@@H](CCCNC(=N)N)C(=O)NCC(=O)N1CCC[C@@H]1C(=O)N[C@@H](CCCNC(=N)N)C(=O)N[C@@H](CCCNC(=N)N)C(=O)N[C@@H](Cc1ccc3ccccc3c1)C(=O)N2` [Ex. 90] (cyclo(VR[Cit]CRG[dP]RR[2Nal]CYQK[dP]P); disulfide 4-11), for which the IC50 on CXCR4 is 19.5 nM. In data set [1], this compound returned a Hemolysis at 100 μM of 0.1%. In “in vitro”, the GI50 at 48 h stood at 57 µM.

With `N=C(N)NCCC[C@@H]1NC(=O)[C@@H]2CSSC[C@H](NC(=O)[C@H](Cc3ccc4ccccc4c3)NC(=O)[C@H](CCCNC(=N)N)NC(=O)[C@H](CCCNC(=N)N)NC(=O)[C@H]3CCCN3C(=O)CNC1=O)C(=O)N[C@@H](Cc1ccc(O)cc1)C(=O)N[C@@H](CCC(N)=O)C(=O)N[C@@H](CCCCN)C(=O)N1CCC[C@@H]1C(=O)N1CCC[C@H]1C(=O)N[C@@H](Cc1ccc(O)cc1)C(=O)N[C@@H](CCCNC(=N)N)C(=O)N[C@@H](CC(N)=O)C(=O)N2` [Ex. 92] (cyclo(YRNCRG[dP]RR[2Nal]CYQK[dP]P); disulfide 4-11), at CXCR4, the IC50 turned out to be 1.1 nM. Besides, the Hemolysis at 100 μM in data set [1] was determined as 0.5%. This compound also gave a GI50 at 48 h in the data set “in vitro” of 53 µM.

For `CSCC[C@@H]1NC(=O)[C@H](CCCNC(=N)N)NC(=O)[C@H](Cc2ccc(O)cc2)NC(=O)[C@@H]2CCCN2C(=O)[C@H]2CCCN2C(=O)[C@H](CCCCN)NC(=O)[C@H](CCC(N)=O)NC(=O)[C@H](Cc2ccc(O)cc2)NC(=O)[C@@H]2CSSC[C@H](NC1=O)C(=O)N[C@@H](CCCNC(=N)N)C(=O)NCC(=O)N1CCC[C@@H]1C(=O)N[C@@H](CCCNC(=N)N)C(=O)N[C@@H](CCCNC(=N)N)C(=O)N[C@@H](Cc1ccc3ccccc3c1)C(=O)N2` [Ex. 100] (cyclo(YRMCRG[dP]RR[2Nal]CYQK[dP]P); disulfide 4-11), the 50% inhibitory concentration (IC50) at CXCR4 was determined as 7 nM. The Hemolysis at 100 μM in data set [1] was determined as 0.8%. Also, in “in vitro”, the GI50 at 48 h amounted to 43 µM.

With `N=C(N)NCCC[C@@H]1NC(=O)[C@@H]2CSSC[C@H](NC(=O)[C@H](Cc3ccc4ccccc4c3)NC(=O)[C@H](CCCNC(=N)N)NC(=O)[C@H](CCCNC(=N)N)NC(=O)[C@H]3CCCN3C(=O)CNC1=O)C(=O)N[C@@H](Cc1ccc(O)cc1)C(=O)N[C@@H](CCC(N)=O)C(=O)N[C@@H](CCCCN)C(=O)N1CCC[C@@H]1C(=O)N1CCC[C@H]1C(=O)N[C@@H](Cc1ccc(O)cc1)C(=O)N[C@@H](CCCNC(=N)N)C(=O)N[C@@H](CCCNC(=N)N)C(=O)N2` [Ex. 69] (cyclo(YRRCRG[dP]RR[2Nal]CYQK[dP]P); disulfide 4-11), the half-maximal inhibitory concentration (IC50) on CXCR4 was 1.8 nM. The Hemolysis at 100 μM in data set [1] worked out at 0.1%. The compound further registered a GI50 at 48 h in the data set “in vitro” of 49 µM.

With `N=C(N)NCCC[C@@H]1NC(=O)[C@@H]2CSSC[C@H](NC(=O)[C@H](Cc3ccc4ccccc4c3)NC(=O)[C@H](CCCNC(=N)N)NC(=O)[C@H](CCCNC(=N)N)NC(=O)[C@H]3CCCN3C(=O)CNC1=O)C(=O)N[C@@H](Cc1ccc(O)cc1)C(=O)N[C@@H](CCCNC(=N)N)C(=O)N[C@@H](CCCCN)C(=O)N1CCC[C@@H]1C(=O)N1CCC[C@H]1C(=O)N[C@@H](Cc1ccc(O)cc1)C(=O)N[C@@H](CCCNC(=N)N)C(=O)N[C@@H](CCCNC(N)=O)C(=O)N2` [compound 57] (cyclo(YR[Cit]CRG[dP]RR[2Nal]CYRK[dP]P); disulfide 4-11), the half-inhibitory concentration (IC50) on CXCR4 worked out at 4.2 nM. Besides, in data set [1], the Hemolysis at 100 μM stood at 0.1%. In the data set “in vitro”, the GI50 at 48 h was found to be 33 µM.

For the compound `CN1CC(=O)N[C@@H](CCCCN)C(=O)N2CCC[C@@H]2C(=O)N2CCC[C@H]2C(=O)N[C@@H](Cc2ccc(O)cc2)C(=O)N[C@@H](CCCNC(=N)N)C(=O)N[C@@H](CCCNC(N)=O)C(=O)N[C@H]2CSSC[C@H](NC(=O)[C@H](Cc3ccc4ccccc4c3)NC(=O)[C@H](CCCNC(=N)N)NC(=O)[C@H](CCCNC(=N)N)NC(=O)[C@H]3CCCN3C(=O)CNC(=O)[C@H](CCCNC(=N)N)NC2=O)C(=O)N[C@@H](Cc2ccc(O)cc2)C1=O` [Ex. 129], the IC50 at CXCR4 turned out to be 10.9 nM. The Hemolysis at 100 μM in data set [1] came to 0%. Also, in “in vitro”, growth was halved (GI50 at 48 h) at 23 µM.

For the compound `C[C@@H](O)[C@@H]1NC(=O)[C@H](CCCNC(=N)N)NC(=O)[C@H](Cc2ccc(O)cc2)NC(=O)[C@@H]2CCCN2C(=O)[C@H]2CCCN2C(=O)[C@H](CCCCN)NC(=O)[C@H](CCC(N)=O)NC(=O)[C@H](Cc2ccc(O)cc2)NC(=O)[C@@H]2CSSC[C@H](NC1=O)C(=O)N[C@@H](CCCNC(=N)N)C(=O)NCC(=O)N1CCC[C@@H]1C(=O)N[C@@H](Cc1ccncc1)C(=O)N[C@@H](CCCNC(=N)N)C(=O)N[C@@H](Cc1c[nH]c3ccccc13)C(=O)N2` [Ex. 118] (cyclo(YRTCRG[dP][4Pal]RWCYQK[dP]P); disulfide 4-11), the IC50 on CXCR4 worked out at 7.6 nM. This compound also registered a Hemolysis at 100 μM in data set [1] of 0%. The same compound returned a GI50 at 48 h in the data set “in vitro” of 52 µM.

Turning to `CC(C)C[C@@H]1NC(=O)[C@H](Cc2ccc(O)cc2)NC(=O)[C@@H]2CSSC[C@H](NC(=O)[C@H](CCCNC(N)=O)NC(=O)[C@H](CCCNC(=N)N)NC(=O)[C@H](Cc3ccc(O)cc3)NC(=O)[C@@H]3CCCN3C(=O)[C@H]3CCCN3C(=O)[C@H](CCCCN)NC1=O)C(=O)N[C@@H](CCCNC(=N)N)C(=O)NCC(=O)N1CCC[C@@H]1C(=O)N[C@@H](CCCNC(=N)N)C(=O)N[C@@H](CCCNC(=N)N)C(=O)N[C@@H](Cc1ccc3ccccc3c1)C(=O)N2` [Ex. 82] (cyclo(YR[Cit]CRG[dP]RR[2Nal]CYLK[dP]P); disulfide 4-11), the IC50 on CXCR4 was 4.8 nM. In data set [1], this compound returned a Hemolysis at 100 μM of 0%. Moreover, the concentration for 50% growth inhibition (GI50) at 48 h in the data set “in vitro” stood at 40 µM.

Regarding `N=C(N)NCCC[C@@H]1NC(=O)[C@H](CCCNC(=N)N)NC(=O)[C@H]2CCCN2C(=O)CNC(=O)CN(CCN)C(=O)[C@@H]2CSSC[C@H](NC(=O)[C@H](Cc3ccc4ccccc4c3)NC1=O)C(=O)N[C@@H](Cc1ccc(O)cc1)C(=O)N[C@@H](CCCNC(N)=O)C(=O)N[C@@H](CCCCN)C(=O)N1CCC[C@@H]1C(=O)N1CCC[C@H]1C(=O)N[C@@H](Cc1ccc(O)cc1)C(=O)N[C@@H](CCCNC(=N)N)C(=O)N[C@@H](CCCNC(N)=O)C(=O)N2` [Ex. 138] (cyclo(YR[Cit]C[Gly(N-2-aminoethyl)]G[dP]RR[2Nal]CY[Cit]K[dP]P); disulfide 4-11), the IC50 at CXCR4 was found to be 63 nM. The compound also came in with a Hemolysis at 100 μM in data set [1] of 0%. For the same compound, the GI50 at 48 h in the data set “in vitro” was determined as 18 µM.

For the compound `N=C(N)NCCC[C@@H]1NC(=O)[C@@H]2CCC(=O)NCC[C@H](NC(=O)[C@H](Cc3c[nH]c4ccccc34)NC(=O)[C@H](CCCNC(=N)N)NC(=O)[C@H](CCCNC(=N)N)NC(=O)[C@H]3CCCN3C(=O)CNC1=O)C(=O)N[C@@H](Cc1ccc(O)cc1)C(=O)N[C@@H](CCCNC(N)=O)C(=O)N[C@@H](CCCCN)C(=O)N1CCC[C@@H]1C(=O)N1CCC[C@H]1C(=O)N[C@@H](Cc1ccc(O)cc1)C(=O)N[C@@H](CCCNC(=N)N)C(=O)N[C@@H](CCCNC(N)=O)C(=O)N2` [Ex. 153] (cyclo(YR[Cit]ERG[dP]RRW[Dab]Y[Cit]K[dP]P); lactam 4-11), the IC50 on CXCR4 is 21.9 nM. The Hemolysis at 100 μM in data set [1] stood at 1.7%. In “in vitro”, the GI50 at 48 h worked out at 43 µM.

Turning to `C[C@@H](O)[C@@H]1NC(=O)[C@H](Cc2ccc(O)cc2)NC(=O)[C@@H]2CSSC[C@H](NC(=O)[C@H](CCCNC(N)=O)NC(=O)[C@H](CCCNC(=N)N)NC(=O)[C@H](Cc3ccc(O)cc3)NC(=O)[C@@H]3CCCN3C(=O)[C@H]3CCCN3C(=O)[C@H](CCCCN)NC1=O)C(=O)N[C@@H](CCCNC(=N)N)C(=O)NCC(=O)N1CCC[C@@H]1C(=O)N[C@@H](CCCNC(=N)N)C(=O)N[C@@H](CCCNC(=N)N)C(=O)N[C@@H](Cc1ccc3ccccc3c1)C(=O)N2` [Ex. 133] (cyclo(YR[Cit]CRG[dP]RR[2Nal]CYTK[dP]P); disulfide 4-11), the half-inhibitory concentration (IC50) on CXCR4 stood at 5.3 nM. The compound further returned a Hemolysis at 100 μM in data set [1] of 0.1%. For the same compound, the concentration for 50% growth inhibition (GI50) at 48 h in “in vitro” was found to be 45 µM.

Consider `N=C(N)NCCC[C@@H]1NC(=O)[C@@H]2CSSC[C@H](NC(=O)[C@H](Cc3ccc4ccccc4c3)NC(=O)[C@H](CCCNC(=N)N)NC(=O)[C@H](CCCNC(=N)N)NC(=O)[C@H]3CCCN3C(=O)CNC1=O)C(=O)N[C@@H](Cc1ccc(O)cc1)C(=O)N[C@@H](CCC(N)=O)C(=O)N[C@@H](CCCCN)C(=O)N1CCC[C@@H]1C(=O)N1CCC[C@H]1C(=O)N[C@@H](Cc1ccc(O)cc1)C(=O)N[C@@H](CCCNC(=N)N)C(=O)N[C@@H](Cc1c[nH]c3ccccc13)C(=O)N2` [Ex. 73] (cyclo(YRWCRG[dP]RR[2Nal]CYQK[dP]P); disulfide 4-11), for which, at CXCR4, the IC50 was found to be 8.8 nM. The Hemolysis at 100 μM in data set [1] came out at 0.3%. Moreover, it took 20 µM to inhibit growth in the data set “in vitro” by half (GI50 at 48 h).

Take `N=C(N)NCCC[C@@H]1NC(=O)CNC(=O)[C@@H]2CCCN2C(=O)[C@H]2CCCN2C(=O)[C@H](CCCCN)NC(=O)[C@H](CCCNC(N)=O)NC(=O)[C@H](Cc2ccc(O)cc2)NC(=O)[C@@H]2CSSC[C@H](NC(=O)[C@H](CCCNC(N)=O)NC1=O)C(=O)N[C@@H](CCCNC(=N)N)C(=O)NCC(=O)N1CCC[C@@H]1C(=O)N[C@@H](CCCNC(=N)N)C(=O)N[C@@H](CCCNC(=N)N)C(=O)N[C@@H](Cc1ccc3ccccc3c1)C(=O)N2` [Ex. 114] (cyclo(GR[Cit]CRG[dP]RR[2Nal]CY[Cit]K[dP]P); disulfide 4-11): at CXCR4, the IC50 worked out at 1.3 nM. In data set [1], this compound returned a Hemolysis at 100 μM of 0%. In “in vitro”, this compound gave a GI50 at 48 h of 67 µM.
